Test results from patent US12396977B2, “Composition for treating degenerative brain diseases, containing 2-pentylfuran as active ingredient” (DAEGU GYEONGBUK INSTITUTE OF SCIENCE AND TECHNOLOGY, priority 2019, dated 2025).

What was measured:
[1] = molecular target: T1, Olfr110 F104W mutation (Mus musculus, UniProt A2RT31, F104W); assay: Luciferase assay, Olfr110 F104W mutant; type: cell-based; conditions: increasing concentration of 2-PF
T1 construct: Full-length odorant receptor genes from mouse and human genomic DNA were amplified using appropriate primers; Lucy (N); Flag (N); Rho (N); expressed in transfected cells; host or cells: Hana3A cells
T1 sequence (A2RT31 1-317 F104W): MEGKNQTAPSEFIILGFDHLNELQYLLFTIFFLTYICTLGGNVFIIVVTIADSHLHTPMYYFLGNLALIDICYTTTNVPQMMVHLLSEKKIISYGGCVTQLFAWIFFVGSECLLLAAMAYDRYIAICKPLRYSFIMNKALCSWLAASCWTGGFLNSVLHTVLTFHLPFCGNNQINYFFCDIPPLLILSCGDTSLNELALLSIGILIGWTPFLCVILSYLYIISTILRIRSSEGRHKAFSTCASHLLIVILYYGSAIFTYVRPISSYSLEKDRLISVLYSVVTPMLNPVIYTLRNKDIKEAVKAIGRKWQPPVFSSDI
Source text: Specific mutant vectors of the Olfr110 structure were generated using PfuUltra High-Fidelity DNA polymerase (#600380; Agilent Technologies). All mutant vectors (F102W; F104W; Y252F; Y259F; F102W/F104W; Y252F/Y259F; F102W/Y252F/Y259F; F104W/Y252F/Y259F; F102W/F104W/Y252F/Y259F) were sequenced in forward and reverse directions (Macrogen).

[2] = test system: primary microglia; assay: Western blot of phosphorylated signalling proteins in primary microglia; type: cell-based, mouse; conditions: 0, 2, 5, 10, 20, 30 minutes after treatment
Procedure: Cells and tissues were prepared using the T-PER® reagent (#78510; Thermo Fisher Scientific) with protease inhibitors (#04-693-116-001; Roche Molecular Diagnostics), DMSF (Sigma-Aldrich) and lysed using the MagNA Lyser (Roche Molecular Diagnostics). A total protein extract was quantified by the Bradford assay. The sample was dissolved in 7.5% SDS-PAGE or 4 to 20% gradient mini-PROTEIN TGX Precast Gels (#456-1064; Bio-Rad Laboratories), and then blotted onto nitrocellulose membranes (#10600002; GE Healthcare). The membrane was then blocked in 5% skimmed milk powder, TBST, 0.1% TWEEN® 20 (#P9416; Sigma-Aldrich) and Tris-buffered saline for 1 hour, and then incubated with primary antibodies at 4° C. overnight. The antibodies are as follows: Olfr110 (36 kDa; 1:1,000; #ab177327; Abcam), anti rhodopsin (39 kDa; 1:1,000; #MABN15; Millipore), CREB (43 kDa; 1:1,000; #9197; Cell Signaling Technology), phospho-CREB (43 kDa; 1:1,000; #9198; Cell Signaling Technology), ERK (44 kDa; 1:1,000; #sc094; Santa Cruz), phospho-ERK (42, 44 kDa; 1:1,000; #sc-7383; Santa Cruz), phospho-Akt (60 kDa; 1:500; sc-293125; Santa Cruz), phospho-JNK (46, 54 kDa; 1:500; sc-6254; Santa Cruz), phosphor-p38 (38 kDa; 1:1,000; sc-7973; Santa Cruz), or beta-Actin (45 kDa; 1:10,000; #4967; Cell Signaling Technology). Furthermore, an isotype-matched horseradish peroxidase-conjugated secondary antibody was used at 1:100,000 with anti-rabbit in TBST (#711-035-152; Jackson ImmunoResearch) and 1:40,000 with anti-mouse (#715-035-150; Jackson ImmunoResearch) at room temperature for 2 hours. As an immunoreactive protein band, SuperSignal™ West Pico Chemiluminescent Substrate (#34080; Thermo Fisher Scientific) was used.

CCCCCc1ccco1 [2-PF, 2-pentylfuran]
luciferase activity of Olfr110 F104W mutant [1]: completely lost
phosphorylation levels of ERK, p38, JNK, and Akt [2]: increased from 2 minutes and stopped increasing at 20 minutes
